Key:
[1] = system: SKOV3 cells; assay: Annexin V apoptosis assay, SKOV3; assay type: cell-based, human; conditions: dose-dependent, p < 0.005
Protocol: (§1) A2780 and SKOV3 cell lines were treated with control (siltuximab 10 μM) and butein (5, 10, and 25 μM). After 6 h, the cells were fixed with 70% ethanol for cell cycle analysis and stained with propidium iodide (PI). Cell death was analyzed using the FITC Annexin V Apoptosis Detection kit with 7-AAD (Cat.no. 640922, BioLegend, San Diego, CA, USA). Cells were sorted using a FACS Canto II (BD Biosciences, Franklin Lakes, NJ, USA) and cell cycle and apoptosis were analyzed using BD FACS Diva software version 6. 2. Analysis (BD Biosciences, Franklin Lakes, NJ, USA) was performed in triplicate.

[2] = system: SKOV3 cells; assay: Clonogenic formation assay, SKOV3; assay type: cell-based, human; conditions: compared with control siltuximab-treated cells
Protocol: A2780 and SKOV3 cell lines were seeded at approximately 5000 cells/well in 24-well plates. Butein was added to the cell medium at various concentrations (5, 10, and 25 μM) together with control siltuximab (CTNO328; EUSA Pharma, Inc., Hemel Hempstead, UK) for 12 h. After 2 weeks, the colonies formed were fixed with fixer buffer, stained with crystal violet, and imaged with a ChemiDoc imaging system (Bio-Rad, Herles, CA, USA).

[3] = system: A2780 cells; assay: Cell viability by MTT assay, A2780; assay type: cell-based; conditions: Homo sapiens, 48 h
Protocol: (§2) A2780 and SKOV3 cell lines were purchased from the European Collection of Cell Cultures (ECACC, London, UK) and Korean Cell Line Bank (KCLB, Seoul, Republic of Korea) respectively. Each cell line was seeded in a 96-well plate at an appropriate cell number (3000 cells/100 μL in each well). After 24 h, butein was added to the plates at each of the following concentrations, 0, 3.125, 6.25, 12.5, 25, and 50 μM, in triplicate in the presence of serum medium. After 48 h, 100 μL of […] (Sigma-Aldrich, St. Louis, MO, USA) solubilizing solution was added to each well and incubated for 4 h. The solution was then aspirated, and 100 μL of DMSO was added for cell lysis. The spectrophotometric absorbance was measured at 540 nm. Half of the maximum inhibitory concentration (IC50) was determined using GraphPad Prism software (version 7.0).

[4] = system: A2780 cells; assay: Flow cytometric cell cycle analysis (PI), A2780; assay type: cell-based, human; conditions: 25 μM; 45.3% under control conditions
Protocol: as §1

[5] = biological target: T1, IL-6/IL-6Rα interaction (Homo sapiens, UniProt P05231); assay: ELISA of the IL-6/IL-6Rα interaction; assay type: binding; conditions: at 20 μM
T1 construct: purchased BioLegend (IL-6); Acro biosystems (IL-6Ra) 570806 (IL-6); ILR-H5259 (IL-6Ra)
Protocol: An amount of 0.5 μg/mL rhIL-6 protein (Cat.no.570806, BioLegend) was coated onto 96-well ELISA plates at 4 °C overnight, and then the plates were washed with PBST (1 × PBS containing 0.05% Tween-20), followed by the addition of PBSA (1 × PBS containing 1% bovine serum albumin (BSA)) (Bovogen, East Keilor, Australia) for 1 h at room temperature. After blocking, the FDA-approved compounds (20 uM) (Cat.no. L-1300, Selleckchem, Houston, TX, USA) were incubated for 2 h at room temperature. After washing three times with PBST, 0.2 μg/mL recombinant IL-6Ra protein (Cat.no.ILR-H5259, Acro biosystems, Newark, DE, USA) was added to the plates, which were incubated for 1 h. After washing three times with PBST, HRP-conjugated goat anti-human IgG Ab (Cat.no. 10-035-098, Jackson Immno, Hatfield, West Grove, PA, USA) was added to the plates and incubated for 1 h. After washing three times with PBST, TMB solution (Cat.no.11684302001, Roche, Mannheim, Germany) was added to the plates and incubated for 15 min. Then, stop solution (2N HCl) was added to the plates. The absorbance was measured at 450 nm using the Epoch microplate spectrophotometer (BioTek instruments, Winooski, VT, USA).

[6] = system: A2780 xenograft tumors; assay: A2780 mouse xenograft; assay type: in vivo, BALB/c nude mice
Protocol: Adult BALB/c nude mice aged 5 weeks (n = 5, body weight 17−19 g) were purchased from Orient Bio (Seongnam, Republic of Korea) and reared in aseptic conditions with 55 ± 10% humidity and 25 ± 2 °C temperature under a 12 h/12 h light-dark cycle (Catholic University protocol). All animal experimental work was carried out in compliance with the legal obligations and federal guidelines and legal obligations for the care and maintenance of laboratory animals. All animal experiments were conducted with the approval of the Institutional Animal Care and Use Committee of the Catholic University of Korea (approval number: CUK-IACUC-2019-026-01). A2780 cell suspension (1 × 10^7 cells/200 μL in 1 × PBS) was injected subcutaneously into the dorsal scapula area of each mouse. The tumor developed 14 days after implantation to a size of approximately 150 mm^3. The mice were then divided randomly into vehicle control (5% DMSO), siltuximab (10 mg/kg), and butein (2 or 4 mg/kg) groups. All drugs were dissolved in 0.05% carboxymethylcellulose sodium salt (CMC) (Sigma-Aldrich, St. Louis, MO, USA) and injected intraperitoneally five times a week for three weeks. The tumor size was measured using calipers once every 2 days. The tumor volume was calculated using a simplified equation (length × width^2 × 0.5). Each tumor was harvested 22 days post-treatment.

[7] = system: SKOV3 cells; assay: Cell viability by MTT assay, SKOV3; assay type: cell-based; conditions: Homo sapiens, SK-OV-3, 48 h
Protocol: as §2

[8] = biological target: T2, IL-6 (Homo sapiens, UniProt P05231); assay: Surface plasmon resonance, immobilized IL-6; assay type: binding; conditions: SPR, CM5 chip, steady-state KD
T2 construct: purchased PeproTech
Protocol: The surface plasmon resonance (SPR) assay was measured using the BIAcore T200 model (GE Healthcare, Chicago, IL, USA) with HBS-EP buffer (1×HBS-EP, GE Healthcare, Chicago, IL, USA) containing 5% dimethyl sulfoxide (DMSO; Sigma-Aldrich, St. Louis, MO, USA). The pH scouting for IL-6 (PeproTech, Rocky Hill, NJ, USA), IL-6Rα (PeproTech, Rocky Hill, NJ, USA), and gp130 (Sino Biological, Beijing, China, or ANRT, Daejeon, Korea) immobilization was performed in 10 mM acetate buffer at pH 4.5. IL-6, IL-6Rα, and gp130 were immobilized on a CM5 chip at 750, 1200, and 2000 response units (RU). Butein was injected into the IL-6, IL-6Rα and gp130-immobilized flow cell at concentrations of 10, 20, 30, 40, 50, 60, 70, 80, 90, and 100 μM with a 25 μL/min flow rate for 150 s and allowed to dissociate for 300 s. Steady-state KD was determined via the T-200 BIAevaluation software (GE Healthcare, Chicago, IL, USA).

T2 sequence (P05231 30-212): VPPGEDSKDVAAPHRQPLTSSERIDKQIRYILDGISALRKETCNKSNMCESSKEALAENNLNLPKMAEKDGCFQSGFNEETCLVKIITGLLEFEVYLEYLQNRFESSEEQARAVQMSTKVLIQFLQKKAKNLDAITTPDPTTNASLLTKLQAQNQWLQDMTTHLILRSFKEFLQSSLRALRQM
T1 sequence (P05231 30-212): as above

IC50 [3]: 64.7 ± 6.27 µM
Reduction of the interaction between IL-6 and IL-6Rα [5]: 21.7%
Total mouse weight ([6]; during the experimental period): no difference
IC50 [7]: 175 ± 61.9 µM
Kd [8]: 91.4 µM
Structure (SMILES): O=C(/C=C/c1ccc(O)c(O)c1)c1ccc(O)cc1O [butein]
Total apoptosis, SKOV3 [1]: significantly increase
Clonogenicity, SKOV3 [2]: significantly inhibited
A2780 cells in G1-phase [4]: 55.9%
Tumor growth ([6]; 2 or 4 mg/kg i.p. five times a week, vs vehicle and siltuximab-treated group): significant inhibition

Reference: article PMC10094418, “Butein Inhibits Cell Growth by Blocking the IL-6/IL-6Rα Interaction in Human Ovarian Cancer and by Regulation of the IL-6/STAT3/FoxO3a Pathway” (International Journal of Molecular Sciences, 2023)
